Like-named read-outs stand apart in the source and are kept apart here. Non-standard residues stand in square brackets, D forms with d. Residues, ends and D or L forms follow the SMILES beside them. No end group written: not given here. Tyr(3-I) = N[C@@H](Cc1ccc(O)c(I)c1)C(=O)O
Tests used:
[1] = target: T1, Mr 75000-85000 protein (Mus musculus, UniProt P21729); assay: ^125 I-GRP affinity labelling (EGS cross-linking) of the Mr 75000-85000 protein in Swiss 3T3 cells; assay type: binding
T1 construct: endogenous in cells; host or cells: Swiss 3T3 cells (intact, confluent and quiescent)
Protocol: After 2.5 h the cells were washed three times at 15° C. with phosphate buffered saline (PBS) and then incubated for 15 min at 15° C. in 1 ml of binding medium, pH 7.4 in the presence of the appropriate cross-linking agent at the concentration indicated. The cross-linking agents (EGS, DSS, DSP and BSCOES) were dissolved in dimethyl sulphoxide immediately prior to use and were added to medium to give a final concentration of dimethylsulphoxide of 1-2%. The cultures were rapidly rinsed twice with PBS at 4° C. and solubilized in 0.1 ml of 2× sample buffer 0.2M Tris-HCl, pH 6.8, 10% (w/v) glycerol, 6% sodium dodecyl sulphate (SDS) (w/v) 4% β-mercaptoethanol (v/v) and 2 mM ethylenediaminetetraacetic acid. Samples were immediately heated at 100° C. for 3- 5 min and analysed by either one or two-dimensional gel electrophoresis.
Slab gel electrophoresis was performed using 7.5% acrylamide in the separating gel and 5% in the stacking gel, and 0.1% SDS (31). After electrophoresis gels were stained, destained and dried down onto paper for autoradiography with Fuji X-ray film (Fuji Photo Film Co. Ltd. Japan). Dried gels were exposed to film for 4-8 days. Two-dimensional gel electrophoresis was performed as described by O'Farrell (32) using isoelectric focusing in the 1st dimension and SDS-polyacrylamide gel electrophoresis (SDS-PAGE) (8% polyacrylamide) in the second dimension. The samples prepared for isoelectric focusing containing 1.4% LKB ampholytes, pH 5-7, plus 0.6% LKD ampholytes, pH,3.5-10, 6M urea, and 2% Nonidet P-40. The Mr 75000-85000 band from autoradiograms was scanned using a Joyce-Loebl double beam densitometer and the areas under specific peaks were measured with a Hewlett-Packard digitizer.
FIG. 4. […] Values are expressed as percentage of the specific binding obtained in the absence of antagonists. […] Each point represents the mean of 3 determinations. […] Specific binding (B) is expressed in pmol/10^6 cells and is shown in a double-reciprocal plot. Each point represents the mean of duplicate determinations. […] After 2 hours, the cultures were washed twice with binding medium then incubated in 1 ml containing 6 mM ethylene glycol bis (succinimidylsuccinate) (EGS) at pH 7.4 for 15 minutes at 15° C. The cultures were then washed twice with cold phosphate-buffered saline and solubilised in 0.1 ml of 2× sample buffer, then immediately heated at 100° C. for 5 minutes and electrophoresed on a 10% polyacrylamide gel.
After the incubation period cultures were treated with […] EGS as described in Materials and Methods. Each value is expressed as a percentage of the level of the Mr 75000-85000 protein obtained with no additions (-). Other experimental details are as described in Materials and Methods.

[2] = tested on: Swiss 3T3 cells; assay: DNA synthesis by [^3 H]thymidine incorporation in Swiss 3T3 cells (GRP-induced mitogenesis); assay type: cell-based, mouse; details: for Ability to inhibit mitogenesis stimulated by GRP (relative potency): substance P antagonists tested at 50 μM
Protocol: Cell culture procedure (33), assays of DNA synthesis by ^3 H-thymidine incorporation (34) and ^125 I-GRP binding to intact cells (13) were performed as described previously.
FIG. 3. Inhibition of GRP-induced DNA synthesis by [DPro^2 ]spantide (A) and [DPhe^5 ]spantide (D). […] After 40 hours DNA synthesis was estimated by [^3 H]thymidine incorporation into acid-precipitable material. […] Each point represents the mean of duplicate determinations. […] Values are expressed as a percentage of [^3 H]thymidine incorporation obtained in the absence of antagonists (100%=8.6×10^5 cpm per dish). Each point represents the mean of 4 determinations.

[3] = tested on: Swiss 3T3 cells; details: reference (13); cited from earlier work
[4] = target: T2, GRP receptor (Mus musculus, UniProt P21729); details: reference (13); cited from earlier work
T2 construct: endogenous in cells; host or cells: Swiss 3T3 cells (intact, confluent and quiescent)

[5] = ^125 I-GRP 0.5 nM, 15° C., 2.5 h, EGS, each addition at its own concentration

T1 sequence (P21729 whole entry): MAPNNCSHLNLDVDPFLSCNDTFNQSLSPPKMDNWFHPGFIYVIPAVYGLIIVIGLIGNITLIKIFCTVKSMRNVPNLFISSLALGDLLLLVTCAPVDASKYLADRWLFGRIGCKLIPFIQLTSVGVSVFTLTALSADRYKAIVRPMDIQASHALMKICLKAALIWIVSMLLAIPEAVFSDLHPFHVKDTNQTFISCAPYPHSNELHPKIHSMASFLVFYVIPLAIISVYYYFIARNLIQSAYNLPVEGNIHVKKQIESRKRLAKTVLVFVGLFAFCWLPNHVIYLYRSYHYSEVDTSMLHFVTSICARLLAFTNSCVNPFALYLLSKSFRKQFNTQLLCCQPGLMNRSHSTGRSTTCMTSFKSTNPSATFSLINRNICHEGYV
T2 sequence (P21729 whole entry): as above

| Compound | Mr 75000-85000 protein % of control [1, 5] | further results |
| --- | --- | --- |
| CC(C)C[C@H](NC(=O)[C@H](CC(C)C)NC(=O)[C@@H](Cc1c[nH]c2ccccc12)NC(=O)[C@H](Cc1ccccc1)NC(=O)[C@@H](Cc1c[nH]c2ccccc12)NC(=O)[C@H](CCC(N)=O)NC(=O)[C@H](CCC(N)=O)NC(=O)[C@@H]1CCCN1C(=O)[C@H](CCCCN)NC(=O)[C@H]1CCCN1C(=O)[C@H](N)CCCNC(=N)N)C(N)=O [Antagonist A, D-Arg-D-Pro-Lys-Pro-Gln-Gln-D-Trp-Phe-D-Trp-Leu-Leu-NH2] (H-[dR][dP]KPQQ[dW]F[dW]LL-NH2) | 9.7 % of control |  |
| CC(C)C[C@H](NC(=O)[C@H](CC(C)C)NC(=O)[C@@H](Cc1c[nH]c2ccccc12)NC(=O)[C@H](Cc1ccccc1)NC(=O)[C@@H](Cc1c[nH]c2ccccc12)NC(=O)[C@H](CCC(N)=O)NC(=O)[C@H](CCC(N)=O)NC(=O)[C@@H]1CCCN1C(=O)[C@H](CCCCN)NC(=O)[C@@H]1CCCN1C(=O)[C@H](N)CCCNC(=N)N)C(N)=O [B, DArgProLysProGlnGlnDTrpPheDTrpLeuLeuNH2] (H-[dR]PKPQQ[dW]F[dW]LL-NH2) |  | Antagonist activity against GRP-stimulated mitogenesis ([2]; even at 100 μM): no antagonist activity; Ability to inhibit mitogenesis stimulated by GRP (relative potency) [2]: less potent than either A or D |
| CSCC[C@H](NC(=O)[C@H](CC(C)C)NC(=O)[C@H](Cc1cnc[nH]1)NC(=O)CNC(=O)[C@@H](NC(=O)[C@H](C)NC(=O)[C@H](Cc1c[nH]c2ccccc12)NC(=O)[C@H](CCC(N)=O)NC(=O)[C@H](CC(N)=O)NC(=O)CNC(=O)[C@H](CC(C)C)NC(=O)[C@H](CCCN=C(N)N)NC(=O)[C@H](CCC(N)=O)NC(=O)[C@@H]1CCC(=O)N1)C(C)C)C(N)=O [Bombesin] |  | Mr 75000-85000 protein % of control [1]: 0.5 |
| C[C@H](N)C(=O)NCC(=O)N[C@H]1CSSC[C@@H](C(=O)O)NC(=O)[C@H](CO)NC(=O)[C@H]([C@@H](C)O)NC(=O)[C@H](Cc2ccccc2)NC(=O)[C@H]([C@@H](C)O)NC(=O)[C@H](CCCCN)NC(=O)[C@H](Cc2c[nH]c3ccccc23)NC(=O)[C@H](Cc2ccccc2)NC(=O)[C@H](Cc2ccccc2)NC(=O)[C@H](CC(N)=O)NC(=O)[C@H](CCCCN)NC1=O [Somatostatin] | 97 % of control |  |
| CSCC[C@H](NC(=O)[C@H](CC(C)C)NC(=O)CNC(=O)[C@H](Cc1ccccc1)NC(=O)[C@H](Cc1ccccc1)NC(=O)[C@H](CCC(N)=O)NC(=O)[C@H](CCC(N)=O)NC(=O)[C@@H]1CCCN1C(=O)[C@H](CCCCN)NC(=O)[C@@H]1CCCN1C(=O)[C@@H](N)CCCNC(=N)N)C(N)=O [Substance P] | 91 % of control |  |
| NC(=O)CC[C@@H]1NC(=O)[C@H](Cc2ccccc2)NC(=O)[C@H](Cc2ccc(O)cc2)NC(=O)[C@@H](N)CSSC[C@@H](C(=O)N2CCC[C@H]2C(=O)N[C@@H](CCCN=C(N)N)C(=O)NCC(N)=O)NC(=O)[C@H](CC(N)=O)NC1=O [Vasopressin] | 94 % of control |  |
| CSCC[C@H](NC(=O)[C@H](CC(C)C)NC(=O)[C@H](Cc1c[nH]cn1)NC(=O)CNC(=O)[C@@H](NC(=O)[C@H](C)NC(=O)[C@H](Cc1c[nH]c2ccccc12)NC(=O)[C@H](Cc1c[nH]cn1)NC(=O)[C@H](CC(N)=O)NC(=O)CNC(=O)[C@H](CCCNC(=N)N)NC(=O)[C@@H]1CCCN1C(=O)[C@H](Cc1ccc(O)c(I)c1)NC(=O)[C@H](CCSC)NC(=O)[C@H](CCCCN)NC(=O)[C@H](C)NC(=O)[C@H](CC(C)C)NC(=O)[C@@H](NC(=O)[C@@H](NC(=O)CNC(=O)CNC(=O)CNC(=O)[C@@H](NC(=O)[C@H](CO)NC(=O)[C@@H](NC(=O)[C@@H]1CCCN1C(=O)[C@H](C)N)C(C)C)C(C)C)[C@@H](C)O)C(C)C)C(C)C)C(N)=O [^125 I-GRP] (H-APVSVGGGTVLAKM[Tyr(3-I)]PRGNHWAVGHLM-NH2; N-terminus and C-terminus assumed) |  | Kd ([1]; 15° C., 2.5 h, EGS 6 mM, read-out: Kd from double-reciprocal plot of cross-linking of ^125 I-GRP to the Mr 75000-85000 band): 1 nM |
| EGF: epidermal growth factor | 94 % of control |  |
| GRP (1-16): the 1-16 amino acid (amino-terminal) fragment of GRP (VPLPAGGGTVLTKMYP; Gastrin-releasing peptide; UniProt P07492 24-39, looked up, fragment) | 93 % of control | Stimulation of DNA synthesis [3]: nor stimulates DNA synthesis; Inhibition of ^125 I-GRP binding [4]: neither inhibits ^125 I-GRP binding |
| HArgGlyGlnDTrpPheGlyAsp(OtBu)2 [J] |  | Ability to inhibit mitogenesis stimulated by GRP (relative potency) [2]: less potent than either A or D |

Now from value to compound, other results behind:

| Mr 75000-85000 protein % of control [1, 5] | Compound | further results |
| --- | --- | --- |
| 0.4 % of control | GRP (14-27): the 14-27 amino acid fragment of GRP (MYPRGNHWAVGHLM; ends and bridges not checked; UniProt P07492 37-50, looked up, fragment) |  |
| 90 % of control | Insulin: mitogen for Swiss 3T3 cells |  |
| 2 % of control | Litorin |  |
| 99 % of control | PDGF |  |
| 94 % of control | Substance K: neuropeptide |  |
